In patent US8617872B2, “Compositions for culturing spirochetes” (priority 2000, dated 2013):

Columns and labels:
Assay type in all cases: cell-based
[1] = test system: Y. entero gp.; assay: Antibiotic susceptibility test (MICROSCAN or disc diffusion), control organism Y. entero gp.; settings: total isolates 1
[2] = test system: E. coli; assay: Antibiotic susceptibility test (MICROSCAN or disc diffusion), control organism E. coli; settings: total isolates 1
[3] = test system: Pseudomonas; assay: Antibiotic susceptibility test (MICROSCAN or disc diffusion), control organism Pseudomonas; settings: total isolates 1
[4] = test system: Leptospira; assay: Susceptibility testing of Leptospira isolated from a patient with symptoms of multiple sclerosis; settings: for Antibiotic Susceptibility Results, SERUM: Leptospira culture from serum of multiple sclerosis patient; for Antibiotic Susceptibility Results, URINE: Leptospira culture from urine of multiple sclerosis patient
Procedure: This example describes the preparation of a pellet used for antimicrobial susceptibility testing of a culture sample. […] In order to form pellet, an aliquot of this culture sample is placed in a microcentrifuge tube along with 10% SDS solution, and centrifuged at 14,000 g to disrupt the spirochetes and maximize the number of available eptiopic sites. […] This inoculated alternative growth medium was then allowed to incubate in the closed micro centrifuge tube until a distinctive pellet was observed (typically 7-14 days).
MICROSCAN antibiotic susceptibility microtiter plates were then inoculated with (e.g., 110 μl of) inoculum and allowed to incubate at 35° C. for 16-20 hours. The microtiter plates were then scanned for growth and respective sensitivity reaction (both the control well and the growth well).

[5] = test system: Leptospira; assay: Antibiotic susceptibility test (MICROSCAN or disc diffusion) of patient samples positive for Leptospira; settings: total isolates 276
Source text: (§1) This example describes the preparation of a pellet used for antimicrobial susceptibility testing of a culture sample. The procedure begins with a culture (e.g., prepared in the manner described in Example 2), where serum from a patient is inoculated in GSI-1 media and allowed to grow. In order to form pellet, an aliquot of this culture sample is placed in a microcentrifuge tube along with 10% SDS solution, and centrifuged at 14,000 g to disrupt the spirochetes and maximize the number of available eptiopic sites. The disrupted spirochetes were then cultured in an alternative growth medium made up of one part GSI-1 medium, one part 6.5% lactalbumin hydrolysate, one part 2% brain heart infusion, one part 10% pluronic fluid, and one part of the isolated (disrupted) spirochetes. This inoculated alternative growth medium was then allowed to incubate in the closed micro centrifuge tube until a distinctive pellet was observed (typically 7-14 days).
(§2) Following the observation of pellet formation, the tube was vortexed and incubated at 35° C. until a MacFarlane standard of between 8 to 12% turbidity was achieved. MICROSCAN antibiotic susceptibility microtiter plates were then inoculated with (e.g., 110 μl of) inoculum and allowed to incubate at 35° C. for 16-20 hours. The microtiter plates were then scanned for growth and respective sensitivity reaction (both the control well and the growth well). Table 2 below lists the various antimicrobials tested with this sample and whether growth of the organism was inhibited (susceptible) or whether the growth of the organism was not inhibited (resistant).
(§3) This Example describes the results for susceptibility tests that were performed on a large number of patient samples positive for either Borrelia or Leptospira. […] The results presented in Table 3 reveal the varied response of different types of spirochetes to different antibiotics.

[6] = test system: A. lwoffii; assay: Antibiotic susceptibility test (MICROSCAN or disc diffusion), control organism A. lwoffii; settings: total isolates 1
[7] = test system: Borrelia; assay: Antibiotic susceptibility test (MICROSCAN or disc diffusion) of patient samples positive for Borrelia; settings: total isolates 519
Source text: as §1, §2, §3

[8] = test system: Leptospira; assay: Susceptibility testing of Leptospira isolated from a patient with symptoms of rheumatoid arthritis; settings: for Antibiotic Susceptibility Results, SERUM: Leptospira culture from serum of rheumatoid arthritis patient; for Antibiotic Susceptibility Results, URINE: Leptospira culture from urine of rheumatoid arthritis patient
Source text: as §1
as §2, with “well).” for “well). Table 2 below lists the various antimicrobials tested with this sample and whether growth of the organism was inhibited (susceptible) or whether the growth of the organism was not inhibited (resistant).”
This Example describes the diagnosis and treatment of a human patient with symptoms of rheumatoid arthritis. In particular, serum and urine samples from this patient were initially cultured on GSI-1 (e.g., as described in Example 2), and screened for the presence of spirochetes (e.g., as described in Example 3). […] These cultures were then used to produce pellets for antimicrobial susceptibility testing (e.g., as described in Example 6). The antimicrobial susceptibility tests were then carried out on each sample (e.g., as described in Example 7) with the antimicrobials listed below in Table 5.

[9] = test system: Tatumella; assay: Antibiotic susceptibility test (MICROSCAN or disc diffusion), control organism Tatumella; settings: total isolates 2
Source text: as §1, §2, §3

[10] = test system: Treponema isolate; assay: Antimicrobial susceptibility test (MICROSCAN plates) of a patient's Treponema isolate; settings: Treponema infected patient's isolate; MICROSCAN plates, 35° C., 16-20 hours
Procedure: For susceptibility testing, the organisms harvested could be assayed using any suitable susceptibility assay (See, Example 7). In some embodiments of the present invention, MICROSCAN antibiotic susceptibility plates were inoculated and incubated. Following incubations, plates were scanned for growth and respective sensitivity reaction. […] For the results to be considered reliable, the no growth of organisms was accepted in the negative control well, while the positive control well had to have sufficient growth to be read. In some embodiments of the present invention, to confirm the presence or absence of growing spirochetes in the growth well, aliquots from the growth well were reinoculated with fresh growth media and after an incubation time (e.g., 7-10 days) the presence of the organisms was confirmed (e.g., by phase contrast microscopy or direct fluorescent antibody staining).
as §1
This example describes an antimicrobial susceptibility test performed for a human patient. The patient had previously been testing using GSI-1 medium (e.g., as described in Example 2) for the presence of any spirochetes. […] This culture sample was then transferred to a microcentrifuge tube, and a pellet for antimicrobial susceptibility testing was prepared as described in Example 6.
as §2

Compound	Antibiotic Susceptibility Test Results, Y. entero gp. [1] [%]	Antibiotic Susceptibility Test Results, E. coli [2] [%]	Antibiotic Susceptibility Test Results, Pseudomonas [3] [%]	Antibiotic Susceptibility Results, SERUM [4]	Antibiotic Susceptibility Results, URINE [4]	Antibiotic Susceptibility Test Results, Leptospira [5] [%]	Antibiotic Susceptibility Test Results, A. lwoffii [6] [%]	Antibiotic Susceptibility Test Results, Borrelia [7] [%]	Antibiotic Susceptibility Results, SERUM [8]	Antibiotic Susceptibility Results, URINE [8]	Antibiotic Susceptibility Test Results, Tatumella [9] [%]	RESULT (antibiotic susceptibility) [10]
NCC[C@H](O)C(=O)N[C@@H]1C[C@H](N)[C@@H](O[C@H]2O[C@H](CN)[C@@H](O)[C@H](O)[C@H]2O)[C@H](O)[C@H]1O[C@H]1O[C@H](CO)[C@@H](O)[C@H](N)[C@H]1O [Amikacin]	100	100	100	Resistant	Resistant	85	100	84	Resistant	Resistant	100	–
CO/N=C(\C(=O)N[C@@H]1C(=O)N2C(C(=O)O)=C(COC(C)=O)CS[C@H]12)c1csc(N)n1 [Cefotaxime]	100	100	100	Resistant	Resistant	64	100	60	Resistant	Resistant	0	–
CC(C)(O/N=C(\C(=O)N[C@@H]1C(=O)N2C(C(=O)[O-])=C(C[n+]3ccccc3)CS[C@H]12)c1csc(N)n1)C(=O)O [Ceftazidime]	100	100	100	Resistant	Resistant	41	100	36	Resistant	Resistant	0	–
O=C(O)c1cn(C2CC2)c2cc(N3CCNCC3)c(F)cc2c1=O [Ciprofloxacin]	100	100	100	Susceptible	Susceptible	78	100	84	Susceptible	Susceptible	100	Resistant
C[C@H]1COc2c(N3CCN(C)CC3)c(F)cc3c(=O)c(C(=O)O)cn1c23 [Levofloxacin]	100	100	100	Susceptible	Susceptible	83	100	86	Susceptible	Susceptible	100	–
C[C@@H](O)[C@H]1C(=O)N2C(C(=O)O)=C(S[C@@H]3CN[C@H](C(=O)N(C)C)C3)[C@H](C)[C@H]12 [Meropenem]	100	100	100	Resistant	Resistant	75	100	82	Resistant	Resistant	100	Resistant
CCN1CCN(C(=O)N[C@@H](C(=O)N[C@@H]2C(=O)N3[C@@H]2SC(C)(C)[C@@H]3C(=O)O)c2ccccc2)C(=O)C1=O [Piperacillin]	100	100	100	Resistant	Resistant	55	100	60	Resistant	Resistant	100	Susceptible
NC[C@H]1O[C@H](O[C@H]2[C@H](O)[C@@H](O[C@H]3O[C@H](CO)[C@@H](O)[C@H](N)[C@H]3O)[C@H](N)C[C@@H]2N)[C@H](N)C[C@@H]1O [Tobramycin]	100	100	100	Resistant	Resistant	84	100	81	Resistant	Resistant	100	Intermediate
Gentamicin	100	100	100	Resistant	Resistant	86	100	89	Resistant	Resistant	100	Resistant
Ticarcillin/Clavulanate	100	100	100	Resistant	Resistant	75	100	79	Resistant	Resistant	100	Susceptible
